# In patent US5859227A, “RNA sequences which interact with RNA-binding proteins” (Bearsden Bio, Inc., priority 1997, dated 1999):
# Legend:
# TNF-α production = details: previously shown; cited from earlier work
# [1] = tested on: AUUUA RNA / RNA binding protein (K562 extract); assay: Exploratory library screen, filter binding, 32P-labeled AUUUA RNA and K562 extract; details: 10 μM
# Description: FIG. 4 is a graph of the amount of radioactively labeled RNA retained on a filter (expressed in percent of the amount of RNA retained on a filter in a reference binding solution) following loading of various binding solutions. All of the binding solutions contained radioactively labeled AUUUA RNA either alone or including various other components. The first column represents a binding solution without RNA binding protein. The remaining columns represent binding solution containing RNA binding protein (K562 extract). Columns 3 through 8 correspond to binding solutions including the indicated test compound.
# (§1) a. Filter binding. Filter binding involves trapping interacting molecules on a filter while non interacting molecules pass through the filter. This procedure is known to those of skill in the art. For example, prewet nitrocellulose filters are equilibrated in 1× binding buffer. The binding reaction is then applied to the filter by vacuum filtration to remove unbound RNA. The filter is washed in 1× binding buffer, scintillation cocktail is added and the amount of protein-bound RNA is determined by scintillation counting.
# (§2) All binding reactions were performed in 96-well v-bottom plates in a final volume of 10 μl. The assays were constituted and performed as described below. Specifically, assays were performed by (1) forming a binding solution including RNA molecules, 7.5 mM BTP at pH 8.5, 10 mM KCl, 5 mM MgCl2, 0.2 mM DTT, and 10% glycerol, (2) heating the binding solution to denature the RNA molecules, (3) cooling the binding solution, (4) adding RNA binding proteins to the binding solution, (5) loading the binding solution onto a filter, and (6) detecting the amount RNA retain on the filter. It is preferred that the samples be loaded on to a filter of either pure nitrocellulose or a mixed cellulose ester (MCA). It is also preferred that the filters have a 0.2μ pore size, although filters with a 0.45μ pore size will also bind the RNA/RNA binding protein complex. It is preferred that, prior to loading the binding solution onto a filter, the volume is increased. For this purpose, it is preferred that the dilution solution has the same buffer components as the binding solution except lacking the density agent. For a 10 μl volume it is preferred that the final volume be about 100 μl. It is also preferred that the binding solution be loaded onto the filter under vacuum. It is also preferred that the filter is washed twice prior to detecting the amount of RNA retained on the filter. Preferably the wash solution had the same composition as the dilution solution. However, TE (pH 8.0), PBS, or TCA can also be used as wash solutions. In most of the assays described below, the RNA molecules were labeled with ^32 P.
# The library was initially screened at 10 μM against ^32 P-labeled AUUUA RNA. Several methods of introducing the compounds into the binding reaction were tested. Initially the compounds were co-incubated with the RNA and protein, producing modest results. Next, preincubation with either the protein extract or the RNA was tried with improved results.
# Seventeen compounds were chosen for further analysis at 100 nM, 1 μM and 10 μM using both AUUUA and IRE RNAs based on the results from three screening efforts (Exps. 29-31). Table 2 summarizes the results from these compounds at 10 μM. The results are also shown graphically in FIG. 4. […] Compounds D9 and H2, chosen as negative controls from the initial screening, continued to have no effect in the dose dependent screen (Exp. 33) and were identified as vehicle controls.
# A 96 member random compound library was screened with the disclosed high throughput assay. The compounds were initially screened at 10 μM against ^32 P-labeled AUUUA RNA. […] Seventeen compounds were chosen for further analysis at 100 nM, 1 μM and 10 μM using both AUUUA and IRE RNA molecules to determine if any selectivity of the compounds could be detected. […]
# [2] = tested on: IRE RNA / RNA binding protein (K562 extract); assay: High throughput filter binding assay, labeled IRE RNA and K562 protein extract; details: hemin 1 to 100 μM; FeCl3 and desferroxiamine 1 μM to 1 mM
# Protocol: as §1
# as §2, with “It is also preferred that the binding solution be loaded onto the filter under vacuum. It is also preferred that the filter is washed twice prior to detecting the amount of RNA retained on the filter. Preferably the wash solution had the same composition as the dilution solution. However, TE (pH 8.0), PBS, or TCA can also be used as wash solutions. In most of the assays described below, the RNA molecules were labeled with ^32 P.” left out
# Binding assays were performed with wild-type IRE RNA and K562 protein extract in the presence of sources of iron or iron chelators to determine the ability of the filter assay to detect the modulation of binding interactions by small molecules. […] The reactions were analyzed by gel shifts to visualize the results of the filter assay. […]
# [3] = tested on: human C4b-binding protein 5' UTR / RNA binding proteins (K562 cell line protein); assay: Gel shift specificity (competition), labeled C4b-binding protein 5' UTR and K562 protein; details: 100 and 1,000 fold molar excess of unlabeled RNA
# Description: (§3) A primer pair was designed from the 5' end of the UTR and a 3' primer encompassing nucleotide +1 with the use of the OLIGO program. Similar primers encompassing the same criteria can be designed either manually without the use of this program, or using another similar oligonucleotide design program. In addition, the 5' primer contained 24 nucleotides at the 5' end encoding for the T7 promoter. Clones containing the above sequences were generated by rtPCR from total RNA obtained from the K562 lymphoblastoma cell line. The clones were restriction mapped and analyzed by gel electrophoresis to confirm their identity.
# (§4) PCR products generating a single band (in the undigested lanes) were then used for in vitro transcription of labeled RNA using Ambion's Maxiscript Kit. The labeled transcripts were used in the RNA binding protein detection assay described above. The binding solutions containing the labeled RNA were incubated with 2 μg of protein isolated from the same cell from which the rtPCR product was generated, and the products were resolved on a non-denaturing gel. […] In this experiment, a 100 and 1,000 fold molar excess of unlabeled identical RNA or the same excess of different RNA are added to the binding reactions.
# [4] = tested on: human CD45 5' UTR / RNA binding proteins (K562 cell line protein); assay: Gel shift specificity (competition), labeled CD45 5' UTR and K562 protein; details: 100 and 1,000 fold molar excess of unlabeled RNA
# Description: as §3, §4
molecule,measurement,setting,value
"CC(=NN=C(N)N)c1cc(NC(=O)CCCCCCCCC(=O)Nc2cc(C(C)=NN=C(N)N)cc(C(C)=NN=C(N)N)c2)cc(C(C)=NN=C(N)N)c1 [Compound G10, CNI-1493]",post-transcriptional inhibition of TNF-α production,TNF-α production,post-transcriptionally inhibit TNF-α production
same,change in counts across the experiments,[1]; 4 experiments,substantial increase in counts in 3 of the 4 experiments
same,"labeled AUUUA RNA retained on filter, percent of RNA&K562 reference, Experiment #29",[1]; RNA&K562 = 100,114.53%
same,"labeled AUUUA RNA retained on filter, percent of RNA&K562 reference, Experiment #30",[1]; RNA&K562 = 100,66.94%
same,"labeled AUUUA RNA retained on filter, percent of RNA&K562 reference, Experiment #31",[1]; RNA&K562 = 100,127.28%
same,"labeled AUUUA RNA retained on filter, percent of RNA&K562 reference, Experiment #33",[1]; RNA&K562 = 100,135.24%
same,Avg. % (labeled AUUUA RNA retained on filter),"[1]; mean of Experiments #33, #31, #30, #29",111.00%
"CC(=O)N(O)CCCCCNC(=O)CCC(=O)N(O)CCCCCNC(=O)CCC(=O)N(O)CCCCCN [Desferroxiamine, desferroxiamine]",modulation of IRE/protein binding by small molecules,[2],did not change the amount IRE/protein complex formed
[Cl][Fe]([Cl])[Cl] [FeCl3],modulation of IRE/protein binding by small molecules,[2],concentration-dependent inhibition of binding
hemin,modulation of IRE/protein binding by small molecules,[2],concentration-dependent inhibition of binding
"C4b-binding protein: 5' UTR RNA of human C4b-binding protein alpha chain, SEQ ID NO:3 (nucleic acid, expressed or natural sequence) GCUGCUUUAUUUCUGCUGUUAAUCAUUCAUUGGGCCCGUCAAAAGUUUCUGCCCAUCUAUUUCCAUCAACCGUCCUUGACCAGCCAACCACAUGGCUGAAAUUCAGG",competition of complex formation by unlabeled RNA,[3],concentration dependent inhibition of complex formation
"CD45: 5' UTR RNA of human CD45, SEQ ID NO:4 (nucleic acid) CUGACAUCAUCACCUAGCAGUUCAUGCAGCUAGCAAGUGGUUUGUUCUUAGGGUAACAGAGGAGGAAAUUGUUCCUCGUCUGAUAAGACAACAGUGGAGAAAGGACGCAUGCAGUUUCUUAGGGACACGGCUGACUUCCAGAUAUGACCAUGUAUUUGUGGCUUAAACUCUUGG",competition of complex formation by unlabeled RNA,[4],concentration dependent inhibition of complex formation
